The target in the assay is T1, KinA (Bacillus subtilis, UniProt P16497).
T1 construct: made in house
T1 sequence (P16497 1-606): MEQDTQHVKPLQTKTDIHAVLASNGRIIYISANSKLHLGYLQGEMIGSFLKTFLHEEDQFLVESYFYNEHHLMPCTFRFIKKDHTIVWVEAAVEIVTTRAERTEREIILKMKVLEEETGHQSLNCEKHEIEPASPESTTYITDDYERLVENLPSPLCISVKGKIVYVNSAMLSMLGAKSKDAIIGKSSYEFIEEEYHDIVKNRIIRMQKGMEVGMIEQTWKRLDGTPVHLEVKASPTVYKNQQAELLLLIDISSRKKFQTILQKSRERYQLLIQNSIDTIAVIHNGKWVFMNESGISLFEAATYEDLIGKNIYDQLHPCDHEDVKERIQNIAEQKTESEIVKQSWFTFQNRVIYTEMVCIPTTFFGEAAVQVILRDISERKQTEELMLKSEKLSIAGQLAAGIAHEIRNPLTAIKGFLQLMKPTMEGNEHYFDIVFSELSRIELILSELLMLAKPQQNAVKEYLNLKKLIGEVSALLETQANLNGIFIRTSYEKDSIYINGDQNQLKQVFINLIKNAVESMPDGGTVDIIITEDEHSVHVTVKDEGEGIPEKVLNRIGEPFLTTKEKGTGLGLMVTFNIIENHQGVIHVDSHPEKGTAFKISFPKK
Put plainly: biochemical. The conditions noted are these: for inhibition of KinA phosphorylation of SpoOF (in words): tested at 0.08% final concentration. It is filed as biochemical. How it is done: The reactions were performed in a 25 μl final volume containing 100 mM Tris pH 8.0, 100 mM KCl, 2 mM MgCl2, 0.5 mM dithiothreitol, 10% (v/v) glycerol, 0.1 % (w/v) gelatin, 4% (v/v) ethanol, 200 μM total ATP containing approximately 1.5 μCi [gamma-^32 P]ATP (New England Nuclear, 6000 Ci/mMol, 150 μCi/ml), 300 μM SpoOF protein and 0.04 μM KinA protein (Perego, et al., J. Bacteriol. 171: 6187-6196 (1989)) unless otherwise indicated. Fatty acids were added to varying final concentration from solutions made with 100% ethanol (the 4% ethanol concentration in the reaction mixture reflects these addition, or in the case of controls, the addition of ethanol alone). The reactions were initiated by addition of the ATP and incubated for thirty minutes at room temperature.
When higher KinA concentrations were used, the time of incubation was adjusted accordingly. The reactions were stopped by adding an equal volume of loading dye (0.25 M Tris pH 6.8, 20% (v/v) glycerol, 1% sodium dodecyl sulfate (w/v), 140 mM β-mercaptoethanol, 0.05% (w/v) bromophenol blue) and aliquots were loaded onto polyacrylamide gels (5% stacking, 15% separating, using the buffer system of Laemmi, Id., 1970).
The gels were run for approximately 16 hours at 10 mA constant current. The gels were covered with plastic wrap and subjected to autoradiography using Kodak XOmat RP1 film. Quantitation of activity was accomplished by cutting gels slices containing the appropriate phosphoprotein (usually SpoOF~P, see Section E below) and counting the Cerenkov radiation in a Beckman LF7500 scintillation counter (Beckman Instruments, Fullerton, Calif.). Equal-sized slices from blank areas of the gels were also counted and used to adjust for background. Percentage of activity was calculated using the value of the control reaction as 100%.
To quantify our initial assessment of inhibitory properties, the I0.5 values (at 4×10^-8 M KinA) were determined for each of the fatty acids. […] For example, the percent activity at an indicated oleic acid concentration is the ratio (×100) of the incorporation of ^32 P (from [γ^32 P]ATP) into the SpoOF protein relative to the incorporation in the control reaction containing no inhibitor. Typically, data are gathered from at least two different experiments. The I0.5 value is the concentration--e.g., the oleic acid concentration--corresponding to 50% activity as determined from the relevant graph.

Where [1] appears, read: Table 4, I0.5 at 4×10^-8 M KinA, 32P incorporation into SpoOF, read-out: Fatty Acid Inhibitors of KinA Activity (category by I0.5).
Setting [2] is: at 4×10^-8 M KinA, read-out: I0.5 value (concentration corresponding to 50% KinA activity).
The mark [3] stands for this setting: Fatty Acid Inhibitors of KinA Activity (category by I0.5), Table 4, I0.5 at 4×10^-8 M KinA, 32P incorporation into SpoOF.

“Also recorded” adds a separate entry of the source. Read-outs that look alike come from different tables or passages of the source. Bounds are passed on as bounds.

Take `CC(C)CCCCCCCCCCC(=O)O` [12-methyltridecanoic]: the “inhibitory effect on KinA in vitro (in words)” value (“inhibitory effect on KinA” below) is recorded as “weak inhibitors”. Moreover, the IC50 under setting [1] was 100 to 500 µM. Further, the “inhibitory effect on KinA” value (listed as 12-methyltridecanoic acid) is recorded as “weak in vitro inhibitors”. Where the note is “listed as iso 14:0”, the “inhibitory effect on KinA” value was “weak inhibitory properties”. As for `CC(C)CCCCCCCCCCCC(=O)O` [13-methyltetradecanoic], the “inhibitory effect on KinA” value is given as “weak inhibitors”. In addition, under setting [1], the IC50 was 100 to 500 µM. The IC50 under setting [2] was 400 µM. For the same compound, for the setting “listed as 13-methyltetradecanoic acid”, the “inhibitory effect on KinA” value is reported as “weak in vitro inhibitors”. For the same compound, under “listed as iso 15:0”, the “inhibitory effect on KinA” value is listed as “weak inhibitory properties”.

In the case of `CC(C)CCCCCCCCCCCCC(=O)O` [14-methylpentadecanoic], the “inhibitory effect on KinA” value is “not inhibitors”. Further, the IC50 under setting [1] is more than 1000 µM.

As to `CC(C)CCCCCCCCCCCCCC(=O)O` [15-methylhexadecanoic], the “inhibitory effect on KinA” value is “not inhibitors”. In addition, the IC50 under setting [1] was more than 1000 µM. For `CC(C)CCCCCCCCCCCCCCC(=O)O` [16-methylheptadecanoic], in that order: “not inhibitors” and more than 1000 µM. Compound `CCCCC/C=C\C/C=C\C/C=C\C/C=C\CCCC(=O)O` [all cis-5,8,11,14-eicosatetraenoic] yielded an IC50 under setting [3] of less than 70 µM.

Turning to `CC/C=C\C/C=C\C/C=C\CCCCCCCC(=O)O` [all cis-9,12,15-octadecanoic], the IC50 under setting [1] is less than 70 µM.

As to `CCCCC/C=C\C/C=C\CCCCCCCC(=O)O` [cis,cis-9,12-octadecenoic], the IC50 under setting [1] is less than 70 µM. On to `CCCCCCCCCCC/C=C\CCCCC(=O)O` [cis-6-octadecanoic], for which the IC50 under setting [1] was less than 70 µM.

In the case of `CCCCCC/C=C\CCCCCCCC(=O)O` [cis-9-hexadecanoic], the “inhibitory effect on KinA” value was “potent inhibitors”. The IC50 under setting [1] is less than 70 µM.

`CCCC/C=C\CCCCCCCC(=O)O` [cis-9-tetradecenoic]: the “inhibitory effect on KinA” value was “only a weak inhibitor”. Further, under setting [1], the IC50 is 100 to 500 µM. Besides, under setting [2], the IC50 came to 200 µM. As for `CCCCCCCC/C=C\CCCCCCCCCC(=O)O` [cis-11-eicosenoic], the IC50 under setting [1] was less than 70 µM.

`CCCCCC/C=C\CCCCCCCCCC(=O)O` [cis-11-octadecanoic]: the “inhibitory effect on KinA” value was “potent inhibitors”. This compound displayed an IC50 under setting [3] of less than 70 µM. For `CCCCCCCC/C=C\CCCCCCCCCCCC(=O)O` [cis-13-docosenoic], the “inhibitory effect on KinA” value is “non-inhibitory”. Moreover, the IC50 under setting [1] is more than 1000 µM. As for `CCCCCCCC/C=C\CCCCCCCCCCCCCC(=O)O` [cis-15-tetracosenoic], the “inhibitory effect on KinA” value is listed as “non-inhibitory”. The IC50 under setting [3] is more than 1000 µM. For `CCCCCCCCCC(=O)O` [decanoic], the “inhibitory effect on KinA” value was “not inhibitors”. Besides, the IC50 under setting [3] was more than 1000 µM. Turning to `CCCCCCCCCCCC(=O)O` [dodecanoic], the “inhibitory effect on KinA” value is given as “not inhibitors”. The IC50 under setting [1] was more than 1000 µM. Take `CCCCCCCCCCCCCCCCCCCC(=O)O` [eicosanoic]: the IC50 under setting [1] was more than 1000 µM.

In the case of `O=P(O)(O)OCC(O)CO` (centres unmarked) [glycerophosphate], the “inhibition of KinA phosphorylation of SpoOF (in words)” value (from here on “inhibition”) was “Only oleic acid and stearic acid were inhibitory”.

`CCCCCCCCCCCCCCCCC(=O)O` [heptadecanoic]: the IC50 under setting [1] is more than 1000 µM. For `CCCCCCCCCCCCCCCC(=O)O` [hexadecanoic], the “inhibitory effect on KinA” value is “little or no inhibitory effect”; the “inhibition” value was “Only oleic acid and stearic acid were inhibitory”. Also, the IC50 under setting [1] is more than 1000 µM. `CCCCCC(=O)O` [hexanoic]: the “inhibitory effect on KinA” value is “not inhibitors”. Moreover, the IC50 under setting [1] was more than 1000 µM.

For `CCCCCCCCCCCCCCCCCC(=O)O` [octadecanoic], the “inhibition” value is reported as “weak inhibition”. The compound also came in with an IC50 under setting [3] of 100 to 500 µM. This compound also had an IC50 (I0.5 value (concentration corresponding to 50% KinA activity), at 4×10^-8 M KinA) of 500 µM. The “inhibitory effect on KinA” value (listed as stearic) was “little or no inhibitory effect”. Further, under “listed as stearic acid”, the “inhibitory effect on KinA” value was “weak inhibitor; also recorded: very weak inhibitor”.

On to `CCCCCCCC(=O)O` [octanoic], for which the “inhibitory effect on KinA” value was “not inhibitors”. Moreover, the IC50 under setting [1] was more than 1000 µM. On to `CCCCCCCCCCCCCC(=O)O` [tetradecanoic], for which the IC50 under setting [1] is more than 1000 µM. The same measure, in the same setting: the same measure for `C/C=C/C(=O)O` [trans-2-butenoic]: more than 1000 µM.

As to `CCCCCCCC/C=C/CCCCCCCC(=O)O` [trans-9-octadecenoic], the IC50 under setting [1] was more than 1000 µM. Further, where the note is “listed as elaidic”, the “inhibitory effect on KinA” value is “little or no inhibitory effect; also recorded: not inhibitory”. `CCCCCC/C=C/CCCCCCCCCC(=O)O` [trans-11-octadecenoic] registered an IC50 under setting [3] of more than 1000 µM. For the same compound, the “inhibitory effect on KinA” value (listed as trans-vaccenic) is recorded as “little or no inhibitory effect; also recorded: not inhibitory”.

Regarding L-α-glycerophosphatidylcholine, the “inhibition” value is “Only oleic acid and stearic acid were inhibitory”. As to L-α-phosphatidic acid, the “inhibition” value is “Only oleic acid and stearic acid were inhibitory”. As to L-α-phosphatidylcholine, the “inhibition” value is “Only oleic acid and stearic acid were inhibitory”.
